# Assay results published in US9586907B2, “Isothiocyanate compounds, pharmaceutical compositions, and uses thereof” (priority 2006, dated 2017).
# Columns and labels:
# [1] = system: clinical isolates of bacteria and fungus (including yeasts); experiment: General antimicrobial activity, semi-quantitative score on collection of clinical isolates; assay type: cell-based; conditions: for General antimicrobial activity: semi-quantitative score from number of sensitive bacterial strains at 100 and 200 μM, deduced from number of sensitive bacterial species and average MIC; as to General antimicrobial activity: key: −: indicating no activity; +++++: indicating highest activity
# Experimental: The growth inhibitory effect of a number of various ITC compounds were tested on large collection of clinical isolates of bacteria and fungus (including yeasts), in order to establish a systematic structure-activity relationship for the ITC compounds. […] To assess the average activity for an individual ITC compound, the semi-quantitative score was calculated for each compound based on the number of sensitive bacterial strains at concentrations of 100 and 200 μM.
# Bacillus cereus [2] = experiment: Bactericidal/bacteriostatic activity (CFU), Bacillus cereus; assay type: cell-based
# Staphylococcus aureus = experiment: Bactericidal/bacteriostatic activity (CFU), Staphylococcus aureus; assay type: cell-based; conditions: 1 to 2 hours, FIG. 2B
# [3] = system: human acute monocytic leukemia cells (THP1 cells); experiment: Growth of THP1 cells, MTT metabolic assay; assay type: cell-based; conditions: Homo sapiens, THP-1, 24 h, read-out: drop in cell viability
# Experimental: THP1 cells were either mock-treated (DMSO vehicle alone), or treated with increasing doses of new compounds 37 and 45, from 0 to 32 μg/mL. Cells were incubated in the presence of compound for 24 hours, and subsequently were assayed for total cell viability using an MTT, metabolic assay.
# [4] = In vivo tolerance in mice; conditions: highest dose, 50 mg/kg
# Bacillus cereus [5] = experiment: Pre-incubation of compound in MHB medium, inhibitory activity against Bacillus cereus; assay type: cell-based; conditions: initial concentration equal to the MIC value; FIG. 5
# Experimental: Preincubation of Compound 37 in Culture Medium and Its Effect on Growth-Inhibitory Activity. Compound 37 was added to liquid Muller-Hinton Broth (MHB) medium in microtiter plate to final concentration 2 mg/ml and incubated for the periods of time indicated in FIG. 5 before addition to cultures of B. cereus. After incubation for 20 h at 37° C., bacterial growth was assessed by measuring of the turbidity at 600 nm.
# ITC compounds can react with amine- and thiol-containing components of the culture media with the formation of corresponding thioureas and dithiocarbamates. The effect of pre-incubation of Compound 37 in MHB medium on its inhibitory activity against Bacillus cereus was determined at an initial concentration equal to the MIC value. While no growth of the bacteria occurs upon immediate addition of the inhibitor, progressive growth is observed as a function of pre-incubation time.
# [6] = system: Mycobacterium tuberculosis H37Rv strain; experiment: In vitro infection model, bacterial growth inhibition in infected macrophages; assay type: cell-based; conditions: M. tuberculosis H37Rv; up to 1 μg/mL; Rifampicin control
# Excerpt: Rifampicin was used as a control for this experiment.
# virus (92TH594) = experiment: Viral proliferation in PBMC, p24 viral antigen; assay type: cell-based; conditions: PBMC
# [7] = system: Enterococcus sp., BK11940; experiment: MIC, Enterococcus sp., BK11940
# Candida crusei 6258^mdr [8] = experiment: microbe, parasite or virus in culture; conditions: read-out: Anti-Fungal Activity (MIC)
# [9] = system: human peritoneal macrophages infected with Mycobacterium tuberculosis H37Rv strain; experiment: In vitro infection model, cytotoxicity; conditions: up to 1 μg/mL; Rifampicin control
# Candida albicans 90028 = experiment: Anti-fungal MIC, Candida albicans 90028
# Candida albicans 90030 = experiment: Anti-fungal MIC, Candida albicans 90030
# Candida dlabrata 250^mdr = experiment: Anti-fungal MIC, Candida dlabrata 250^mdr
# [10] = system: Candida albicans 5108^mdr; experiment: Anti-fungal MIC, Candida albicans 5108^mdr
# [11] = system: Candida parapsilosis 22019; experiment: Anti-fungal MIC, Candida parapsilosis 22019
# [12] = system: Aspergillus fumigatus Rit 1; experiment: Anti-fungal MIC, Aspergillus fumigatus Rit 1
# [13] = system: Aspergillus fumigatus Rit 11; experiment: Anti-fungal MIC, Aspergillus fumigatus Rit 11
# [14] = system: Aspergillus fumigatus Rit 21; experiment: Anti-fungal MIC, Aspergillus fumigatus Rit 21
# [15] = system: Cryptococcus neoformans CNH99; experiment: Anti-fungal MIC, Cryptococcus neoformans CNH99
# Candida crusei 6258^mdr [16] = system: Candida crusei 6258^mdr
# [17] = compound 2.5 μg/ml, added to the cells after viral infection
# [18] = compound 2.5 μg/ml, added to the cells before viral infection
# [19] = compound 10 μg/ml, added to the cells after viral infection
# [20] = compound 10 μg/ml, added to the cells before viral infection
# [21] = Enterococcus sp., BK11940, Gram +, 24 hours of incubation
smiles,measurement,setting,value
S=C=NCc1ccc(CN=C=S)cc1 [Compound 37],MIC,[1]; read-out: MIC values towards the microorganisms,1 to 4 µg/mL
same,General antimicrobial activity,[1],+++++
same,bacterial growth at 20 h,"Bacillus cereus [2]; Compound at 4 μg/ml, data not shown",no bacterial growth was detected
same,cell viability of Bacillus cereus (CFU),"Bacillus cereus [2]; incubation 1 to 2 hours, FIG. 2A",dramatic decrease in cell viability
same,effect on Staphylococcus aureus cultures,Staphylococcus aureus,bacteriostatic effect
same,cytotoxicity at 8 µg/mL,[3],~25%
same,toxicity in treated mice,[4],no toxicity was observed
same,effect of pre-incubation in MHB medium on inhibitory activity,Bacillus cereus [5],decrease of inhibition potency
same,growth inhibitory activity in infected macrophages,[6],gave similar results
same,P24 values,virus (92TH594); [17],760 pg/mL
same,P24 values,virus (92TH594); [18],210 pg/mL
same,P24 values,virus (92TH594); [19],340 pg/mL
same,P24 values,virus (92TH594); [20],0 pg/mL
same,MIC,"[7]; Enterococcus, 24 h",16 µg/mL
same,MIC,Candida crusei 6258^mdr [8],0.5 µg/mL
same,cytotoxicity in infected macrophages,[9],exhibited more toxicity
same,MIC,"Candida albicans 90028; Candida albicans, 90028, read-out: Anti-Fungal Activity (MIC)",0.5 µg/mL
same,MIC,"Candida albicans 90030; Candida albicans, 90030, read-out: Anti-Fungal Activity (MIC)",0.5 µg/mL
same,MIC,"Candida dlabrata 250^mdr; Candida, 48 h, read-out: Anti-Fungal Activity (MIC)",0.125 µg/mL
same,MIC,"[10]; Candida albicans, read-out: Anti-Fungal Activity (MIC)",0.5 µg/mL
same,MIC,"[11]; 22019, read-out: Anti-Fungal Activity (MIC)",0.5 µg/mL
same,MIC,"[12]; Aspergillus fumigatus, RIT1, read-out: Anti-Fungal Activity (MIC)",0.5 µg/mL
same,MIC,"[13]; Aspergillus fumigatus, RIT11, read-out: Anti-Fungal Activity (MIC)",0.5 µg/mL
same,MIC,"[14]; Aspergillus fumigatus, RIT21, read-out: Anti-Fungal Activity (MIC)",0.5 µg/mL
same,MIC,"[15]; Cryptococcus neoformans, CNH99, read-out: Anti-Fungal Activity (MIC)",< 1 µg/mL
"S=C=NCCCCCCCCN=C=S [Compound 42, S═C═N—(CH2)8—N═C═S]",General antimicrobial activity,[1],+++++
same,toxicity in treated mice,[4],no toxicity was observed
same,growth inhibitory activity in infected macrophages,[6],gave similar results
same,P24 values,virus (92TH594); [17],630 pg/mL
same,P24 values,virus (92TH594); [18],220 pg/mL
same,P24 values,virus (92TH594); [19],700 pg/mL
same,P24 values,virus (92TH594); [20],0 pg/mL
same,MIC,[7]; [21],8 µg/mL
same,cytotoxicity in infected macrophages,[9],exhibited more toxicity
"S=C=NCCCCCCCN=C=S [Compound 41, S═C═N—(CH2)7—N═C═S]",General antimicrobial activity,[1],+++++
same,Anti-Fungal Activity (MIC),Candida crusei 6258^mdr [16],2 µg/mL
same,MIC,[7]; [21],8 µg/mL
same,Anti-Fungal Activity (MIC),Candida albicans 90028; Candida albicans 90028,8 µg/mL
same,Anti-Fungal Activity (MIC),Candida albicans 90030; Candida albicans 90030,<1 µg/mL
same,Anti-Fungal Activity (MIC),Candida dlabrata 250^mdr; Candida dlabrata 250^mdr,<1 µg/mL
same,Anti-Fungal Activity (MIC),[10]; Candida albicans 5108^mdr,8 µg/mL
same,Anti-Fungal Activity (MIC),[11]; Candida parapsilosis 22019,2 µg/mL
same,Anti-Fungal Activity (MIC),[12]; Aspergillus fumigatus Rit 1,4 µg/mL
same,Anti-Fungal Activity (MIC),[13]; Aspergillus fumigatus Rit 11,4 µg/mL
same,Anti-Fungal Activity (MIC),[14]; Aspergillus fumigatus Rit 21,4 µg/mL
same,Anti-Fungal Activity (MIC),[15]; Cryptococcus neoformans CNH99,<1 µg/mL
